The values that follow come from patent US20050154035A1, “Methods of using zonisamide as an adjunctive therapy for partial seizures” (Eisai Co., Ltd., priority 2004, published 2005).

One series concerns T-type Ca^2+ currents. The conditions noted are these: in vitro; cited from earlier work.
In a further series the test system is rat hippocampal slices. To be noted: 10-30 μg/mL; cited from earlier work.
The subject of series [1] is cultured mouse spinal cord neurons. To be noted: 10-30 μg/mL, cited from earlier work.
In series [2] the test system is dopaminergic and serotonergic neurotransmission. The conditions noted are these: in vivo microdialysis; cited from earlier work.
Series [3] deals with GABA/benzodiazepine receptor ionophore complex. The conditions noted are these: in vitro, cited from earlier work.
Series [4] in a line: Pharmacovigilance review of rhabdomyolysis / CPK elevation in zonisamide-treated patients (U.S. and Japan). To be noted: human, in vivo. The source says: The pharmacovigilance data that were collected, reviewed and analyzed provided the following information in respect of the incidence of rhabdomyolysis/CPK elevation in the zonisamide-treated patient population. To date, a total of 10 cases fulfill the criteria of potential rhabdomyolysis cases. These 10 cases were reviewed in detail for evaluation of possible safety signals. All 10 cases fulfill serious criteria. Of these 10 cases, seven (7) cases were reported as rhabdomyolysis and three (3) cases were reported as CPK increase.
Of the seven (7) rhabdomyolysis cases, six (6) are verbatim cases from Dainippon and one (1) originates in the U.S. Of the seven (7) cases, three (3) were pediatric cases and four (4) were adult cases.
Of the seven (7) rhabdomyolysis cases, two (2) cases have strong confounding factors, but the possibility of zonisamide involvement cannot be completely excluded. Two (2) cases have moderate confounding factors, and zonisamide involvement may be possible.
Of the three (3) cases of CPK increase, one (1) is a verbatim report from Dainippon, and two (2) originated from the U.S. Of the three (3) cases, two are pediatric patients and one is an adult. Of these three (3) cases, two (2) recovered and the outcome of the third is unknown.
Of the three (3) cases of CPK increase, one (1) case has strong confounding factors, but the possibility of zonisamide involvement cannot be completely excluded. One (1) case has weak confounding factors, and zonisamide involvement may be possible.
Estimates of zonisamide exposure, based upon retail and mail order prescriptions, indicate that the number of unique patients taking zonisamide capsules in the U.S. is about 37,276 (total prescriptions per year/average number of prescriptions per patient per year less a calculated percentage decrease based on estimated annual dropouts) in the time between approval in 2000 and December 2002. Hospital patient data for that period, however, is not available and is not reflected in the estimates. Estimates of patient exposure for Japan indicate that the number of unique patients taking zonisamide is about 1,185,177 for time beginning with the approval in Japan through December 2002. Japanese data includes prescription and hospital patient data. Exposure from clinical trials are not included in the U.S. or Japanese exposure estimates. Based on these statistics, the estimated number of patients exposed to zonisamide in the U.S. and Japan is 1,222,453 unique patients. This is a rather conservative estimate, assuring that the number of patients actually exposed to zonisamide is unlikely to be higher than the estimate provided. Similarly, the incidences of rhabdomyolysis estimated herein are unlikely to be higher than calculated. […]

For series [5] the following is noted: in vivo; cited from earlier work.

In the case of `NS(=O)(=O)Cc1noc2ccccc12` [zonisamide, 1,2-benzisoxazole-3-methanesulfonamide], the “effect on voltage-dependent, transient inward currents (T-type Ca2+ currents)” value with T-type Ca^2+ currents is listed as “reduces voltage-dependent, transient inward currents”. For the same compound, the “effect on neuronal or glial uptake of [3H]-GABA” value in the series with rat hippocampal slices is reported as “without affecting”. Besides, in series [1], the “effect on synaptically-driven electrical activity” value was “suppresses synaptically-driven electrical activity”. Besides, the “effect on postsynaptic GABA or glutamate responses” value in series [1] (cultured mouse spinal cord neurons) is on record as “without affecting”. Besides, the “effect on dopaminergic and serotonergic neurotransmission” value in series [2] was “facilitates both dopaminergic and serotonergic neurotransmission”. Moreover, the “binding to the GABA/benzodiazepine receptor ionophore complex” value in series [3] (allosteric fashion) was “binds to the GABA/benzodiazepine receptor ionophore complex”. For the same compound, the “effect on chloride flux” value in series [3] is reported as “does not produce changes in chloride flux”. Further, in series [4], the “CPK increase cases with no or only weak confounding factors” value is 2 cases; the “rhabdomyolysis cases with no or only weak confounding factors” value is on record as 3 cases; the “time from initiation of zonisamide treatment to development of CPK increase” value is “two (2) days and six (6) weeks”; the “time from initiation of zonisamide treatment to development of rhabdomyolysis” value was “two (2) weeks and nine (9) years”. In addition, in series [5], the “doses at which many of the side effects are more frequent” value is at least 300 mg per day.
